From US10695334B2, “Heteroaromatic carboxamide derivatives as plasma kallikrein inhibitors” (Boehringer Ingelheim International GmbH, priority 2018, dated 2020)

Key:
Format in all cases: biochemical
[1] = molecular target: human TK1 (Homo sapiens (Human), UniProt P06870); experiment: Inhibition of TK1 (Ki); settings: column head prints IC50, text above the table says Ki values
Method: The ability of compounds of formula (I) to inhibit plasma kallikrein (PKK), Factor Xlla (FXIIa), Factor Xla (FXIa), Factor Xa (FXa), Factor Ila (alpha-thrombin; FIIa), plasmin, trypsin, tissue kallikrein 1 (TK1), Factor VIIa (FVIIa), or FVIIa complexed with Tissue Factor, phospholipids and CaCl2 (FVIIa/TF/PL/CaCl2) was determined using the following biochemical assays in assay buffer (100 mM Tris, 150 mM NaCL, adjusted to a pH of 7.8 with HCl, and containing 0.1% (w/v) BSA and 0.05% (v/v) Tween20) in the presence of 1% (v/v) DMSO: EVALUATION OF THE INHIBITION OF PKK USING AN ENDPOINT ASSAY Human PKK (0.01 U/mL; Enzyme Research Laboratories) or rat PKK (0.625 nM; produced in-house) was incubated for 1 h at room temperature with 0.10 μM fluorogenic substrate H-Pro-Phe-Arg-AMC (11295 from Bachem) and various concentrations of the test compound in assay buffer. Subsequently, PPACK II (Calbiochem) was added as a stop solution to achieve a final concentration of 1 μM and fluorescence was measured using an Envision Reader (PerkinElmer) with the wavelength excitation setting of 355 nm and the wavelength emission setting of 460 nm.
Prior to the assay, human TK1 (R&D Systems) was activated by incubation with human trypsin (Calbiochem) in a 1:10,000 ratio for 15 min at 37° C. For assaying TK1 inhibitory activity, activated TK1 (31.25 nM or 1 U/mL) was incubated at 24° C. with 0.1 mM fluorogenic substrate H-Pro-Phe-Arg-AMC (11295 from Bachem) and various concentrations of the test compound in assay buffer. Measurements were performed in a kinetic interval every 2nd minute for 16 min using a Spectramax M5 (Molecular Devices) with the following settings of the wavelength excitation of 350 nm and wavelength emission of 450 nm.
The average Vmax values for the time interval from 2 to 12 min after initiation of the assay (expressed as either delta OD/min for assays using a chromogenic substrate or delta RFU/min for assays using a fluorigenic substrate, respectively) were plotted versus the Log of the concentration in molar of the evaluated inhibitor compound. The pIC50 values were then fitted using a four-parametric fitting procedure using GraphPad Prism (version 6; GraphPad Software, Inc.). Respective Ki values were obtained by correction of the IC50 values for the respective KM value of the used substrate (see Table A for the obtained KM values of the used substrates) using the following formula: […]
(§1) Where the IC50 is in molar and the KM value in mM.

[2] = molecular target: T1, Human PKK (Homo sapiens (Human), UniProt P03952); experiment: Inhibition of PKK, endpoint assay (human PKK); settings: substrate H-Pro-Phe-Arg-AMC, 1 h room temperature
T1 sequence (P03952 391-638): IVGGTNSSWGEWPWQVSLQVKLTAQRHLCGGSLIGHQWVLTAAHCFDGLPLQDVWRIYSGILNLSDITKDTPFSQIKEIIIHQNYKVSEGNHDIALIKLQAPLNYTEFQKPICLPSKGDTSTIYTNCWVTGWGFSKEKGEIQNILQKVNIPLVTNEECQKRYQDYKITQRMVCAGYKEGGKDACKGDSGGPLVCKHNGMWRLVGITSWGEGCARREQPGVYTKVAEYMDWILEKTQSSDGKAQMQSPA
T1 sequence (P03952 20-390 partner): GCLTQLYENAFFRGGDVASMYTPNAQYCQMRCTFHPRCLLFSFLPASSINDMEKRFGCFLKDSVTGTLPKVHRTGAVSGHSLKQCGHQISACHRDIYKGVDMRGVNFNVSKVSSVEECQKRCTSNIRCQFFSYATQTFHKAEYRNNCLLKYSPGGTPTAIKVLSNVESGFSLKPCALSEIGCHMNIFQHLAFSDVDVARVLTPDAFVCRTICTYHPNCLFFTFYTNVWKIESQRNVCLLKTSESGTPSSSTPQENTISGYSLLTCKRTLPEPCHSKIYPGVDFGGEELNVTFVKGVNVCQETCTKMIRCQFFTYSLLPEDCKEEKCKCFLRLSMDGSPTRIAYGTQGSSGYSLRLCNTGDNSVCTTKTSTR
Method: Subsequently, PPACK II (Calbiochem) was added as a stop solution to achieve a final concentration of 1 μM and fluorescence was measured using an Envision Reader (PerkinElmer) with the wavelength excitation setting of 355 nm and the wavelength emission setting of 460 nm.

[3] = molecular target: PKK in kaolin activated human platelet poor plasma (Homo sapiens (Human), UniProt P03952); experiment: Inhibition of PKK in kaolin activated human PPP; settings: global fit over 25, 75, 250, 750 μg/mL kaolin
Chain of PKK in kaolin activated human platelet poor plasma (P03952 391-638): as the sequence (P03952 391-638) above
Chain of PKK in kaolin activated human platelet poor plasma (P03952 20-390 partner): as the sequence (P03952 20-390 partner) above
Method: Platelet poor plasma (PPP) obtained from human wholeblood, anticoagulated with Na-Citrat, was incubated with various concentrations of the test compound together with either 25, 75, 250, or 750 μg/mL kaolin in assay buffer for 20 min at 37° C. such that for each kaolin dose used a concentration response was obtained for the test compound.

[4] = molecular target: T1, Human PKK; experiment: Inhibition of PKK (Ki), kinetic assay; settings: 24° C., IC50 corrected for KM
Method: Measurements were performed in a kinetic interval every 2nd minute for 16 min using a Spectramax M5 (Molecular Devices) with the following settings of the wavelength excitation of 350 nm and wavelength emission of 450 nm. The number of the compound corresponds to the number of the Example in the experimental section.
The pIC50 values were then fitted using a four-parametric fitting procedure using GraphPad Prism (version 6; GraphPad Software, Inc.).
as §1

Chain of human TK1 (P06870 25-262): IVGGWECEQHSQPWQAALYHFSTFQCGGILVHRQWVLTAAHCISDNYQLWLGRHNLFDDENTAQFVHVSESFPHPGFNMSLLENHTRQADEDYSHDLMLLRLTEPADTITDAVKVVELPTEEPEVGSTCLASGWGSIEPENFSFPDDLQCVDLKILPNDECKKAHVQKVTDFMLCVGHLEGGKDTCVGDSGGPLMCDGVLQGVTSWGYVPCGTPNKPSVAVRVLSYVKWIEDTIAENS

Compound	IC50 [1] [nM]	IC50 [2] [nM]	IC90 [3] [nM]	Ki [4] [nM]
Cc1nc(N2CCC(F)(F)C2)ccc1Cn1cc(C(=O)N[C@@H]2CCc3c2n[nH]c3C)cn1 [Example 37, 1-{[6-(3,3-Difluoropyrrolidin-1-yl)-2-methylpyridin-3-yl]methyl}-N-[(6R)-3-methyl-2H,4H,5H,6H-cyclopenta[c]pyrazol-6-yl]-1H-pyrazole-4-carboxamide]	> 10000	7	4980	2
Cc1nc(N2CCC(C)(C)C2)ccc1Cn1cc(C(=O)N[C@@H]2CCc3c2n[nH]c3C)cn1 [Example 35, 1{[6-(3,3-Dimethylpyrrolidin-1-yl)-2-methylpyridin-3-yl]methyl}-N-[(6R)-3-methyl-2H,4H,5H,6H-cyclopenta[c]pyrazol-6-yl]-1H-pyrazole-4-carboxamide]	> 10000	2	2010	0.9
Cc1nc(N2CC3CC3C2)ccc1Cn1cc(C(=O)N[C@@H]2CCc3c(C)n[nH]c32)cn1 (stereo partly drawn) [Example 3, 1-[(6-{3-Azabicyclo[3.1.0]hexan-3-yl}-2-methylpyridin-3-yl)methyl]-N-[(6R)-3-methyl-1H,4H,5H,6H-cyclopenta[c]pyrazol-6-yl]-1H-pyrazole-4-carboxamide]	> 10000	0.8	679	0.5
Cc1nc(N2C[C@@H]3[C@H](C)[C@@H]3C2)ccc1Cn1cnc(C(=O)N[C@@H]2CCc3c2n[nH]c3C)c1 [Example 100, N-[(6R)-3-Methyl-2H,4H,5H,6H-cyclopenta[c]-pyrazol-6-yl]-1-({2-methyl-6-[(1R,5S,6R)-6-methyl-3-azabicyclo[3.1.0]hexan-3-yl]pyridin-3-yl}methyl)-1H-imidazole-4-carboxamide]	> 10000	0.4	303	0.8
Cc1nc(N2CC3CC3C2)ccc1Cn1cc(C(=O)N[C@@H]2CCc3c2n[nH]c3C)nc1C(F)(F)F (stereo partly drawn) [Example 98, 1-[(6-{3-Azabicyclo[3.1.0]hexan-3-yl}-2-methyl-pyridin-3-yl)methyl]-N-[(6R)-3-methyl-2H,4H,5H,6H-cyclopenta[c]pyrazol-6-yl]-2-(trifluoromethyl)-1H-imidazole-4-carboxamide]	> 10000	5	3140	6
Cc1nc(N2CCC3(CCC3)C2)ccc1Cn1cc(C(=O)N[C@@H]2CCc3c2n[nH]c3C)cn1 [Example 36, 1-[(6-{6-Azaspiro[3.4]octan-6-yl}-2-methylpyridin-3-yl)methyl]-N-[(6R)-3-methyl-2H,4H,5H,6H-cyclopenta[c]pyrazol-6-yl]-1H-pyrazole-4-carboxamide]	> 10000	4	4670	1
Cc1nc(N2CC3CC3C2)ccc1Cn1cc(C(=O)NC2CCc3c(C)n[nH]c32)cn1 (stereo not shown) [Example 1, 1-[(6-{3-Azabicyclo[3.1.0]hexan-3-yl}-2-methylpyridin-3-yl)methyl]-N-{3-methyl-1H,4H,5H,6H-cyclopenta[c]pyrazol-6-yl}-1H-pyrazole-4-carboxamide]	> 10000	2	705	1
Cc1nc(N2C[C@@H]3[C@H](C)[C@@H]3C2)ccc1Cn1cc(C(=O)N[C@@H]2CCc3c2n[nH]c3C)cn1 [Example 47, N-[(6R)-3-Methyl-2H,4H,5H,6H-cyclopenta[c]pyrazol-6-yl]-1-({2-methyl-6-[(1R,5S,6S)-6-methyl-3-azabicyclo[3.1.0]hexan-3-yl]pyridin-3-yl}methyl)-1H-pyrazole-4-carboxamide]	> 10000	0.9	445	0.4
Cc1nc(N2CCC(C)(C#N)C2)ccc1Cn1cc(C(=O)N[C@@H]2CCc3c2n[nH]c3C)cn1 (stereo partly drawn) [Example 71, 1-{[6-(3-Cyano-3-methylpyrrolidin-1-yl)-2-methylpyridin-3-yl]methyl}-N-[(6R)-3-methyl-2H,4H,5H,6H-cyclopenta[c]pyrazol-6-yl]-1H-pyrazole-4-carboxamide]	> 10000	2	708	1
Cc1[nH]nc2c1CC[C@H]2NC(=O)c1cn(Cc2ccc(N3CC4(CC4)C3)nc2)cn1 [Example 104, 1-[(6-{5-Azaspiro[2.3]hexan-5-yl}pyridin-3-yl)-methyl]-N-[(6R)-3-methyl-2H,4H,5H,6H-cyclo-penta[c]pyrazol-6-yl]-1H-imidazole-4-carboxamide]	> 10000	3	444	3
Cc1nc(N2CC3(CCC3)C2)ccc1Cn1cc(C(=O)N[C@@H]2CCc3c2n[nH]c3C)cn1 [Example 54, 1-[(6-{2-Azaspiro[3.31]heptan-2-yl}-2-methylpyridin-3-yl)methyl]-N-[(6R)-3-methyl-2H,4H,5H,6H-cyclopenta[c]pyrazol-6-yl]-1H-pyrazole-4-]	> 10000	2	944	1
Cc1nc(N2CCCC2)ccc1Cn1cc(C(=O)N[C@@H]2CCc3c2n[nH]c3C)cn1 [Example 52, N-[(6R)-3-Methyl-2H,4H,5H,6H-cyclopenta[c]pyrazol-6-yl]-1-{[2-methyl-6-(pyrrolidin-1-yl)pyridin-3-yl]methyl}-1H-pyrazole-4-carboxamide]	> 10000	4	5120	1
Cc1nc(N2CC(C)(F)C2)ccc1Cn1cc(C(=O)N[C@@H]2CCc3c2n[nH]c3C)cn1 [Example 77, 1-{[6-(3-Fluoro-3-methylazetidin-1-yl)-2-methylpyridin-3-yl]methyl}-N-[(6R)-3-methyl-2H,4H,5H,6H-cyclopenta[c]pyrazol-6-yl]-1H-pyrazole-4-carboxamide]	> 10000	5	1110	4
Cc1nc(N2C[C@@H]3[C@H](C)[C@@H]3C2)ncc1Cn1cnc(C(=O)N[C@@H]2CCc3c2n[nH]c3C)c1 [Example 101, 1-({4-Methyl-2-[(1R,5S,6R)-6-methyl-3-azabicyclo[3.1.0]hexan-3-yl]pyrimidin-5-yl}methyl)-N-[(6R)-3-methyl-2H,4H,5H,6H-cyclopenta[c]-pyrazol-6-yl]-1H-imidazole-4-carboxamide]	> 10000	2	727	2
Cc1nc(N2CC3CC3C2)ccc1Cn1cc(C(=O)N[C@@H]2CCc3c(C)n[nH]c32)c(Cl)n1 (stereo partly drawn) [Example 12, 1-[(6-{3-Azabicyclo[3.1.0]hexan-3-yl}-2-methylpyridin-3-yl)methyl]-3-chloro-N-[(6R)-3-methyl-1H,4H,5H,6H-cyclopenta[c]pyrazol-6-yl]-1H-pyrazole-4-carboxamide]	> 10000	1	3090	2
Cc1nc(N2CCC(C(F)F)C2)ccc1Cn1cc(C(=O)N[C@@H]2CCc3c2n[nH]c3C)cn1 (stereo partly drawn) [Example 46, 1-({6-[3-(Difluoromethyl)pyrrolidin-1-yl]-2-methylpyridin-3-yl}methyl)-N-[(6R)-3-methyl-2H,4H,5H,6H-cyclopenta[c]pyrazol-6-yl]-1H-pyrazole-4-carboxamide]	> 10000	4	2840	1
